We go through ten compounds from PMC9151520 (Archives of Toxicology, 2022).

Series [1] relates to p53RE-bla HCT-116 cells.
Series [2] relates to p53 signaling (p53RE-bla HCT-116 cells). As to the kind of experiment: cells. The settings on record: Homo sapiens; for pEC50: HCT-116, read-out: p53 activation EC50, primary screening.
Series [3] deals with p53RE-bla HCT-116 cells. As to the kind of experiment: cells. The settings on record: Homo sapiens.
For series [4], the system named is p53 signaling (p53RE-bla HCT-116 cells).
For series [5] the test system is unchanged. As to the kind of experiment: cells. The format is cell-based. The settings on record: for Emax / pEC50: Homo sapiens.
The test system is the same in series [6]. The source holds these as a separate data set.
The conditions of series [7]: rat.
Setting [8] is: HCT-116, read-out: p53 activation efficacy.
[9] abbreviates: HCT-116, read-out: p53 activation efficacy, primary screening.
Where [10] appears, read: HCT-116, read-out: Viability EC50, cherry pick confirmation.
[11] abbreviates: HCT-116, read-out: Viability EC50, primary screening.
Where [12] appears, read: HCT-116, read-out: EC50, viability, cherry pick confirmation.
Where [13] appears, read: HCT-116, read-out: EC50, p53 activation, cherry pick confirmation.
[14] abbreviates: HCT-116, read-out: EC50, p53 activation, primary screening.
The mark [15] stands for this setting: HCT-116, read-out: Efficacy, p53 activation, cherry pick confirmation.
Setting [16] is: HCT-116, read-out: Efficacy, p53 activation, primary screening.
Where [17] appears, read: HCT-116, read-out: p53 activation EC50, cherry pick confirmation.
The mark [18] stands for this setting: HCT-116, read-out: p53 activation EC50, primary screening.
Setting [19] is: HCT-116, read-out: p53 activation efficacy, cherry pick confirmation.

pEC50: −log10 of the molar value. Values joined by “and” are separate entries in the source; they are usually repeats but may differ in a detail not shown here. Equal values may be shown once. Where a name gives a salt, the structure may show the parent alone. Read-outs that look alike come from different tables or passages of the source.

Take `Nc1nc(N)c2nc(CNc3ccc(C(=O)N[C@@H](CCC(=O)O)C(=O)O)cc3)cnc2n1` [Aminopterin]: in the series on p53RE-bla HCT-116 cells [1], the “Viability EC50” value is “inactive”. The Emax was found to be 48.5% in series [2] (setting [8]) and 39.2% in series [5] (setting [8]). For the same compound, the pEC50 (commonly the negative decadic logarithm of the EC50, by convention in mol/L) with p53RE-bla HCT-116 cells [3] (HCT-116, read-out: Viability EC50) is 6.72. For the same compound, in series [4], the “p53 activation EC50” value is “inactive”. In addition, the values for the p53 activation efficacy entry in series [4], in series [5] and in series [6] were “inactive”, 45.6293 and 37.0427, respectively.
`CCOc1ccc2c(c1)C(C)=CC(C)(C)N2` [Ethoxyquin]: the “Viability EC50, cherry pick confirmation” value with p53RE-bla HCT-116 cells [1] was “inactive”. In addition, in the series on p53RE-bla HCT-116 cells [1], the “Viability EC50, primary screening” value is “inactive”. In addition, the pEC50 was 4.32 in the series on p53RE-bla HCT-116 cells [1] (read-out: Viability EC50, cherry pick confirmation); 4.41 in series [2]; 4.29 in the series on p53RE-bla HCT-116 cells [3] (setting [10]); 4.27 in the series with p53RE-bla HCT-116 cells [3] (setting [11]). For the same compound, in series [2] (setting [9]), the Emax was 50.4%. The “p53 activation EC50, cherry pick confirmation” value in series [4], in series [5] and in series [6] was “inactive” in each case. For the same compound, the “p53 activation EC50, primary screening” value in series [4] and in series [5] was “inactive” throughout. The “p53 activation efficacy, cherry pick confirmation” value in series [4], in series [5] and in series [6] was “inactive” each time. For the same compound, the “p53 activation efficacy, primary screening” value in series [4] and in series [5] was “inactive” in each case.
In the case of `CCOP(=S)(OCC)Oc1nc(Cl)n(C(C)C)n1` [Isazofos], in the series on p53RE-bla HCT-116 cells [1], the “Viability EC50” value was “inactive” and the Viability efficacy entry was “inactive”. Also, in series [4], the “p53 activation EC50” value is “inactive”. Moreover, the pEC50 in series [4] (read-out: p53 activation EC50) is 5.79. The “Depletion after 16 h of incubation with cells” value in series [7] stood at 97.88 ± 0.31%. In addition, in series [5], the “p53 activation EC50” value was “inactive” and the p53 activation efficacy result is “inactive”. Besides, in series [6], the pEC50 was 5.08; the p53 activation efficacy was 50.5712 and 50.6263.
With `COC(=O)C1=C(C)NC(COC(N)=O)=C(C(=O)OC(C)C)C1c1cccc(Cl)c1Cl` (stereo not shown) [Lemildipine], in the series on p53RE-bla HCT-116 cells [1], the “Viability EC50, cherry pick confirmation” value is “inactive”; the “Viability EC50, primary screening” value is “inactive”; the “Viability efficacy, primary screening” value is “inactive”. Besides, the pEC50 in series [2] is 4.68. For the same compound, the Emax in series [2] (setting [9]) came out at 59.7%. Also, in the series with p53RE-bla HCT-116 cells [3] (setting [10]), the pEC50 is 4.70. Also, in series [4], the “p53 activation EC50, cherry pick confirmation” value was “inactive”; the “p53 activation EC50, primary screening” value was “inactive”; the “p53 activation efficacy, cherry pick confirmation” value is “inactive”; the “p53 activation efficacy, primary screening” value is “inactive”. In addition, in series [5], the “p53 activation EC50, cherry pick confirmation” value is “inactive”; the “p53 activation EC50, primary screening” value was “inactive”; the “p53 activation efficacy, cherry pick confirmation” value is “inactive”; the “p53 activation efficacy, primary screening” value is “inactive”. For the same compound, in series [6], the “p53 activation EC50, cherry pick confirmation” value was “inactive” and the “p53 activation efficacy, cherry pick confirmation” value was “inactive”.
On to `CC1=CC(=O)c2ccccc2C1=O` [Menadione], for which the pEC50 with p53RE-bla HCT-116 cells [1] (read-out: EC50, viability, cherry pick confirmation) was 4.37; in the series with p53RE-bla HCT-116 cells [1] (read-out: EC50, viability, primary screening) it was 4.37 and 4.33; with p53RE-bla HCT-116 cells [3] (setting [12]), 4.44; in the series on p53RE-bla HCT-116 cells [3] (HCT-116, read-out: EC50, viability, primary screening) it was 4.29; in series [5] (setting [13]), 4.79; in series [5] (setting [14]), 4.39. Also, the “EC50, p53 activation, cherry pick confirmation” value in series [4] and in series [6] was “inactive” throughout. The “EC50, p53 activation, primary screening” value in series [4] and in series [6] was “inactive” each time. The “Efficacy, p53 activation, cherry pick confirmation” value in series [4] and in series [6] was “inactive” in each case. Also, the “Efficacy, p53 activation, primary screening” value in series [4] and in series [6] was “inactive” each time. In addition, the Emax in series [5] (setting [15]) came to 33.9%; in series [5] (setting [16]) it was 31.2%.
On to `CC1CCC(C(C)C)C(OC(=O)c2ccccc2N)C1` (stereo not shown) [Menthyl anthranilate], for which the “Viability EC50, cherry pick confirmation” value in the series with p53RE-bla HCT-116 cells [1] was “inactive”. Moreover, the “Viability EC50, primary screening” value with p53RE-bla HCT-116 cells [1] is “inactive”. Moreover, the pEC50 in series [2] is 4.46; with p53RE-bla HCT-116 cells [3] (setting [10]), 4.47; in the series with p53RE-bla HCT-116 cells [3] (setting [11]), 4.44; in series [5] (setting [17]), 6.08; in series [5] (setting [18]), 4.31. The results for the Emax in series [2] (setting [9]), in series [5] (setting [19]) and in series [5] (setting [9]) were 70.8%, 40.4% and 62.5%, respectively. In addition, the “p53 activation EC50, cherry pick confirmation” value in series [4] and in series [6] was “inactive” throughout. In series [4], the “p53 activation EC50, primary screening” value was “inactive”. Besides, the “p53 activation efficacy, cherry pick confirmation” value in series [4] and in series [6] was “inactive” each time. Also, the “p53 activation efficacy, primary screening” value in series [4] was “inactive”.
Consider `Cc1nc(N)nc(N)c1-c1ccc(Cl)c(Cl)c1` [Methodichlorophen], for which, in the series with p53RE-bla HCT-116 cells [1], the “EC50, viability, cherry pick confirmation” value was “inactive”; the “EC50, viability, primary screening” value was “inactive”; the “Efficacy, viability, primary screening” value is “inactive”. In the series on p53RE-bla HCT-116 cells [3] (setting [12]), the pEC50 was 5.80. For the same compound, in series [4], the “EC50, p53 activation, cherry pick confirmation” value is “inactive”; the “EC50, p53 activation, primary screening” value was “inactive”; the “Efficacy, p53 activation, cherry pick confirmation” value was “inactive”; the “Efficacy, p53 activation, primary screening” value was “inactive”. In series [5] (setting [13]), the pEC50 is 5.05. For the same compound, the pEC50 in series [5] (setting [14]) was 5.23. In series [5] (setting [15]), the Emax was 31.4%. Also, in series [5] (setting [16]), the Emax is 42.9%. In series [6], the “EC50, p53 activation, cherry pick confirmation” value was “inactive”; the “EC50, p53 activation, primary screening” value was “inactive”; the “Efficacy, p53 activation, cherry pick confirmation” value was “inactive”; the “Efficacy, p53 activation, primary screening” value was “inactive”.
As to `CN(C)c1ccc2nc3ccc(=[N+](C)C)cc-3sc2c1` [Methylene blue], in the series with p53RE-bla HCT-116 cells [1], the “Viability EC50, cherry pick confirmation” value was “inactive”; the “Viability EC50, primary screening” value is “inactive”; the “Viability efficacy, primary screening” value was “inactive”. In the series on p53RE-bla HCT-116 cells [3] (setting [10]), the pEC50 is 4.80. Further, in series [4], the “p53 activation EC50, cherry pick confirmation” value was “inactive”; the “p53 activation EC50, primary screening” value was “inactive”; the “p53 activation efficacy, cherry pick confirmation” value was “inactive”; the “p53 activation efficacy, primary screening” value was “inactive”. For the same compound, the pEC50 in series [5] (setting [17]) was 4.81. Further, the pEC50 in series [5] (setting [18]) is 4.99. In addition, in series [5] (setting [19]), the Emax came to 53.2%. Also, the Emax in series [5] (setting [9]) was 53.4%. Further, in series [6], the “p53 activation EC50, cherry pick confirmation” value was “inactive”; the “p53 activation EC50, primary screening” value is “inactive”; the “p53 activation efficacy, cherry pick confirmation” value was “inactive”; the “p53 activation efficacy, primary screening” value is “inactive”.
`CO[C@@]12[C@H](COC(N)=O)C3=C(C(=O)C(C)=C(N)C3=O)N1C[C@@H]1N[C@@H]12` [Mitomycin C]: in the series with p53RE-bla HCT-116 cells [1], the “EC50, viability, cherry pick confirmation” value was “inactive”; the “EC50, viability, primary screening” value is “inactive”; the “Efficacy, viability, primary screening” value is “inactive”. Also, the pEC50 in the series with p53RE-bla HCT-116 cells [3] (setting [12]) was 4.75. For the same compound, in series [4], the “EC50, p53 activation, cherry pick confirmation” value was “inactive”; the “EC50, p53 activation, primary screening” value was “inactive”; the “Efficacy, p53 activation, cherry pick confirmation” value was “inactive”; the “Efficacy, p53 activation, primary screening” value was “inactive”. For the same compound, in series [5] (setting [13]), the pEC50 is 5.67. Moreover, the Emax in series [5] (setting [15]) came to 134%. In series [6], the “EC50, p53 activation, cherry pick confirmation” value is “inactive” and the “Efficacy, p53 activation, cherry pick confirmation” value was “inactive”.
As to `CC[C@@]1(O)C(=O)OCc2c1cc1n(c2=O)Cc2cc3c(CN(C)C)c(O)ccc3nc2-1` [Topotecan hydrochloride], in the series on p53RE-bla HCT-116 cells [1], the “EC50, viability, cherry pick confirmation” value was “inactive”; the “EC50, viability, primary screening” value is “inactive”; the “Efficacy, viability, primary screening” value is “inactive”. In the series with p53RE-bla HCT-116 cells [3] (setting [12]), the pEC50 is 5.40. Also, in series [4], the “EC50, p53 activation, cherry pick confirmation” value was “inactive”; the “EC50, p53 activation, primary screening” value is “inactive”; the “Efficacy, p53 activation, cherry pick confirmation” value was “inactive”; the “Efficacy, p53 activation, primary screening” value is “inactive”. Moreover, the pEC50 in series [5] (setting [13]) was 6.23. Besides, in series [5] (setting [14]), the pEC50 was 7.11. Besides, the Emax in series [5] (setting [15]) amounted to 179%. Further, in series [5] (setting [16]), the Emax turned out to be 69.5%. For the same compound, in series [6], the “EC50, p53 activation, cherry pick confirmation” value is “inactive”; the “EC50, p53 activation, primary screening” value is “inactive”; the “Efficacy, p53 activation, cherry pick confirmation” value is “inactive”; the “Efficacy, p53 activation, primary screening” value is “inactive”.
